Three molecules from ChEMBL document CHEMBL5696442, “Discovery of type II inhibitors of TGFβ-activated kinase 1 (TAK1) and mitogen-activated protein kinase kinase kinase kinase 2 (MAP4K2)” (J Med Chem, 2015) can be followed below.

The target of test [1] is Serine/threonine-protein kinase PLK1 (Homo sapiens) (UniProt P53350). Put plainly: Inhibition of PLK1 Lys2 labeling site in human A-375 cells at 0.05 uM by KiNativ Profiling analysis relative to control. It is filed as cell-based.
Test [2] addresses MAP kinase-interacting serine/threonine-protein kinase 2 (Homo sapiens) (UniProt Q9HBH9). Briefly: Inhibition of MKNK2 (unknown origin) at 1 uM by Ambit Kinomescan binding assay relative to control; values are per cent of control.
The target in test [3] is Megakaryocyte-associated tyrosine-protein kinase (Homo sapiens) (UniProt P42679). Briefly: Inhibition of CTK (unknown origin) at 1 uM by Ambit Kinomescan binding assay relative to control; values are per cent of control.
The target of test [4] is Phosphatidylinositol 4,5-bisphosphate 3-kinase catalytic subunit gamma isoform (Homo sapiens) (UniProt P48736). Put plainly: Inhibition of PIK3CG (unknown origin) at 1 uM by Ambit Kinomescan binding assay relative to control; values are per cent of control.
Chain of Phosphatidylinositol 4,5-bisphosphate 3-kinase catalytic subunit gamma isoform (Homo sapiens) (P48736 whole entry, looked up, canonical isoform): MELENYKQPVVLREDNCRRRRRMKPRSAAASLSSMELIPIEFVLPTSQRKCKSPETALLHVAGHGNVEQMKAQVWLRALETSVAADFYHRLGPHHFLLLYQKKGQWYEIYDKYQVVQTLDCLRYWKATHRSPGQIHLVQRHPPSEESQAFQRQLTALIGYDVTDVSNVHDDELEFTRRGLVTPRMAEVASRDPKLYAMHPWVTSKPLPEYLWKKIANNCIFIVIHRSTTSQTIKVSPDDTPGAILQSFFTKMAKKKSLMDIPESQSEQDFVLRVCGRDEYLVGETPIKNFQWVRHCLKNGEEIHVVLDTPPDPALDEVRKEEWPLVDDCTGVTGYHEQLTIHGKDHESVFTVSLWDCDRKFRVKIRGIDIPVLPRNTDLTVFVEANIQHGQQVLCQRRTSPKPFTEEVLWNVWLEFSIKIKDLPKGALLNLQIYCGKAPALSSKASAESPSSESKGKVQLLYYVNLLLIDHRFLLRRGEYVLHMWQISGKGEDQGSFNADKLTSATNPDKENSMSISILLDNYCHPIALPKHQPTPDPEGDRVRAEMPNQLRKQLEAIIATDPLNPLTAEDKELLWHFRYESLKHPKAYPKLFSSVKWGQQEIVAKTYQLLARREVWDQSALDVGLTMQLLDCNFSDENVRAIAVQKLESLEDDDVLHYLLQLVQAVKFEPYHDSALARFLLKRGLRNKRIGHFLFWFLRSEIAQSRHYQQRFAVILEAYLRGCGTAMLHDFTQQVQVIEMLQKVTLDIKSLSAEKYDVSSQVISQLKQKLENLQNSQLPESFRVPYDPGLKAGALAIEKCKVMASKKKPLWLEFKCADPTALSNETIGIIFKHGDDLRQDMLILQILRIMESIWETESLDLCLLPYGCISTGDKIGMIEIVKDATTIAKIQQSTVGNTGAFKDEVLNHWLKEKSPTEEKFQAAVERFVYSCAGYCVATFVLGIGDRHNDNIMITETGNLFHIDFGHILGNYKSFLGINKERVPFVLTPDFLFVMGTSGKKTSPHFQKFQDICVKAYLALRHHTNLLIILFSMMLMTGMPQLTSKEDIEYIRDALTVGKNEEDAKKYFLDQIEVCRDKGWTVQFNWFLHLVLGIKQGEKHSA
Test [5] concerns the target 5'-AMP-activated protein kinase catalytic subunit alpha-2 (Homo sapiens) (UniProt P54646). Briefly: Inhibition of AMPKa2 Lys2 labeling site in human A-375 cells at 0.5 uM by KiNativ Profiling analysis relative to control. It is filed as cell-based.
Test [6] deals with Serine/threonine-protein kinase 38-like (Homo sapiens) (UniProt Q9Y2H1). Put plainly: Inhibition of NDR2 Lys1 labeling site harbouring KDTGHIYAMKILR in human A-375 cells at 5 uM by KiNativ Profiling analysis relative to control. The format is cell-based.
Test [7] concerns the target T1, Mitogen-activated protein kinase kinase kinase 2 (Homo sapiens) (UniProt Q9Y2U5).
T1 sequence (whole entry): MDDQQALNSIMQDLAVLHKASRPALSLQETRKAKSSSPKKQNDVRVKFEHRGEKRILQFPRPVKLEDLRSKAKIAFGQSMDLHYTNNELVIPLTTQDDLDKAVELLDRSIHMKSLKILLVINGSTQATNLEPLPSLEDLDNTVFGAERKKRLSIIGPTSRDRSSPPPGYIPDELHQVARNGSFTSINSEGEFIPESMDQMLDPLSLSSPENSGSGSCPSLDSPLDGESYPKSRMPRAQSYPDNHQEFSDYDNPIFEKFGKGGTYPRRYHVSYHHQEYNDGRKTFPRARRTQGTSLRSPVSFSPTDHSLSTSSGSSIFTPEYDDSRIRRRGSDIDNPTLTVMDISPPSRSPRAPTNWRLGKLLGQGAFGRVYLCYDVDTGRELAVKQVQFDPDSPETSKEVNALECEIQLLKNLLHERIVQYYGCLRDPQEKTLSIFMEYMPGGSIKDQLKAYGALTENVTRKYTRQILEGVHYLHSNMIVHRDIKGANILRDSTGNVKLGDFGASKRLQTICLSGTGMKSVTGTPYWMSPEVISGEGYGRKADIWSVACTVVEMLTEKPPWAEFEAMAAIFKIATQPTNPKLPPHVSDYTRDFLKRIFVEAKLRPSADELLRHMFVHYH
Briefly: Inhibition of MAP3K2 K1 labeling site in human Huh-7 cells at 10 uM by KiNativ Profiling analysis relative to control. The format is cell-based.

For test [8], the target named is Mitogen-activated protein kinase kinase kinase 20 (Homo sapiens, UniProt Q9NYL2). Briefly: Inhibition of ZAK Lys1 labeling site in human A-375 cells at 0.5 uM by KiNativ Profiling analysis relative to control. The format is cell-based.
Chain of Mitogen-activated protein kinase kinase kinase 20 (Q9NYL2 2-800 limits assumed): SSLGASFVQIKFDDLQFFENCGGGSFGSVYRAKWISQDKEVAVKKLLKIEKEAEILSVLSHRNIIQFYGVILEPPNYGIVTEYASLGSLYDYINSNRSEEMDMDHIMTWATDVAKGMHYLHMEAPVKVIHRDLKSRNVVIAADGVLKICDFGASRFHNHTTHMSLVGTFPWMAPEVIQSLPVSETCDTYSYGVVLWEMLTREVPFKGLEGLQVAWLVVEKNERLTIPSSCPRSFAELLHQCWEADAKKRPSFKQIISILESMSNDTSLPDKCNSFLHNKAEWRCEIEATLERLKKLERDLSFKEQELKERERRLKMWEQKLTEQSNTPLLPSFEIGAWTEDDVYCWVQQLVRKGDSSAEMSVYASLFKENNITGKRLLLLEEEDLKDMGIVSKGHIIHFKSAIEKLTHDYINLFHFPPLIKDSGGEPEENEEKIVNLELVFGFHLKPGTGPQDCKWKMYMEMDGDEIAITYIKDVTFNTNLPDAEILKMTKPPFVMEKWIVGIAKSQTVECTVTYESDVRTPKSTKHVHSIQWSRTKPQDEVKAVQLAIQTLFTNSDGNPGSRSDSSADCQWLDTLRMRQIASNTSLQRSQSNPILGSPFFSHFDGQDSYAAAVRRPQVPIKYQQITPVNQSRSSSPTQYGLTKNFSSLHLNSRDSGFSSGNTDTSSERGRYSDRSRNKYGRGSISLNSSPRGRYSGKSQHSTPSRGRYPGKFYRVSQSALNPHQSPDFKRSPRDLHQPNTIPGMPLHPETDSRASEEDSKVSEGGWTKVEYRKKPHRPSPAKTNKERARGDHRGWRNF
In test [9] the target is Interferon-induced, double-stranded RNA-activated protein kinase (Homo sapiens) (UniProt P19525). Briefly: Inhibition of PKR ACT labeling site in human Huh-7 cells at 1 uM by KiNativ Profiling analysis relative to control. The format is cell-based.
Chain of Interferon-induced, double-stranded RNA-activated protein kinase (Homo sapiens) (P19525 whole entry): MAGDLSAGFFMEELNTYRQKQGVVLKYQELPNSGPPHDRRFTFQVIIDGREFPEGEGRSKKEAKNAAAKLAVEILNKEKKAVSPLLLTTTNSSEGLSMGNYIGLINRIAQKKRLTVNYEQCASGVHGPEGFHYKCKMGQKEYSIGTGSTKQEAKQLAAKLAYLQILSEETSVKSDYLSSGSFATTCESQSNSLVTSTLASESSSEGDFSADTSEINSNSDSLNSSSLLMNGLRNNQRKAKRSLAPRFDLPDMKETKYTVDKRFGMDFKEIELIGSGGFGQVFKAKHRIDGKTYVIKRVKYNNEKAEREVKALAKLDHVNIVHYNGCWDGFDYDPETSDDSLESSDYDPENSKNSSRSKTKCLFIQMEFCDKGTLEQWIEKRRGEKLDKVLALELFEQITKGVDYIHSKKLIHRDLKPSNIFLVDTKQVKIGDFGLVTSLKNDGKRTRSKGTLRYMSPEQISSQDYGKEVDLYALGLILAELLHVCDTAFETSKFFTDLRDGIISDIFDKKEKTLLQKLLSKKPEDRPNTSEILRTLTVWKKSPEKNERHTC
Test [10] has as its target Mitogen-activated protein kinase kinase kinase 4 (Homo sapiens) (UniProt Q9Y6R4). Put plainly: Inhibition of MAP3K4 K2 labeling site in human Huh-7 cells at 1 uM by KiNativ Profiling analysis relative to control. It is filed as cell-based.
Test [11] deals with T2, Myotonin-protein kinase (Homo sapiens) (UniProt Q09013).
T2 sequence (whole entry): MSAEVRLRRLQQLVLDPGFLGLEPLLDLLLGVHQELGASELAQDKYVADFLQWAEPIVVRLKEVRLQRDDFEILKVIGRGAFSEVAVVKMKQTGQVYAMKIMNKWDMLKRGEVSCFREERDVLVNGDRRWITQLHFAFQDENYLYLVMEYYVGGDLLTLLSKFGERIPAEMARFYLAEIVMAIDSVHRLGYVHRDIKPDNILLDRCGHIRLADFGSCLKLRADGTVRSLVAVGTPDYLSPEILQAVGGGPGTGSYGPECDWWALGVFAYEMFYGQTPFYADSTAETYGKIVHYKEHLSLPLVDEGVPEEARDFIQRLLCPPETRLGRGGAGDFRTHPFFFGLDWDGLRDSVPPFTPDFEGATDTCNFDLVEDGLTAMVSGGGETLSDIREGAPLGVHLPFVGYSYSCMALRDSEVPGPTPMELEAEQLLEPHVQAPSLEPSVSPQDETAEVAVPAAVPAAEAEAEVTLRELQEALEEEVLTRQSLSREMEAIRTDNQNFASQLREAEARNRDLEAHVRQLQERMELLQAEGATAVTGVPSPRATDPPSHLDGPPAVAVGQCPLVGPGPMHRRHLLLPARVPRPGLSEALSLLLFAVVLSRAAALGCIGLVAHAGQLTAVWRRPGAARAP
Briefly: Inhibition of DMPK (unknown origin) at 10 uM by Ambit Kinomescan binding assay.

The target in test [12] is Tyrosine-protein kinase Tec (Homo sapiens) (UniProt P42680). Briefly: Inhibition of TEC (unknown origin) at 10 uM by Ambit Kinomescan binding assay.
Test [13] deals with Dual specificity protein kinase CLK2 (Homo sapiens) (UniProt P49760). Put plainly: Inhibition of CLK2 (unknown origin) at 10 uM by Ambit Kinomescan binding assay.
Chain of Dual specificity protein kinase CLK2 (Homo sapiens) (P49760 whole entry, looked up): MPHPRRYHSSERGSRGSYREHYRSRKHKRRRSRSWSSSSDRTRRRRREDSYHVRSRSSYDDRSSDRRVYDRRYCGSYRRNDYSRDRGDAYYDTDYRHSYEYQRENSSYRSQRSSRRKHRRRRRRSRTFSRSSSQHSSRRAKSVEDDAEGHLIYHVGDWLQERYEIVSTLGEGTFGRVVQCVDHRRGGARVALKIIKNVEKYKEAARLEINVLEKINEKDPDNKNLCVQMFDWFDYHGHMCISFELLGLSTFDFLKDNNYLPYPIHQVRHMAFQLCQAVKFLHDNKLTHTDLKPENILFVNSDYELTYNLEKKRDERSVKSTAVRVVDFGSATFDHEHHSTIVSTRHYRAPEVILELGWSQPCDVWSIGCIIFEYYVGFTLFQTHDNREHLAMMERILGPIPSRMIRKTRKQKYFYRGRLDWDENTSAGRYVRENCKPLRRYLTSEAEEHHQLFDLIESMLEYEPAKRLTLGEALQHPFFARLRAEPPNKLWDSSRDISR
Test [14] concerns Epidermal growth factor receptor (Homo sapiens), P00533 [L858R]. Put plainly: Inhibition of EGFR L858R mutant (unknown origin) at 10 uM by Ambit Kinomescan binding assay relative to control.
Chain of Epidermal growth factor receptor (Homo sapiens), P00533 [L858R] (P00533 whole entry L858R): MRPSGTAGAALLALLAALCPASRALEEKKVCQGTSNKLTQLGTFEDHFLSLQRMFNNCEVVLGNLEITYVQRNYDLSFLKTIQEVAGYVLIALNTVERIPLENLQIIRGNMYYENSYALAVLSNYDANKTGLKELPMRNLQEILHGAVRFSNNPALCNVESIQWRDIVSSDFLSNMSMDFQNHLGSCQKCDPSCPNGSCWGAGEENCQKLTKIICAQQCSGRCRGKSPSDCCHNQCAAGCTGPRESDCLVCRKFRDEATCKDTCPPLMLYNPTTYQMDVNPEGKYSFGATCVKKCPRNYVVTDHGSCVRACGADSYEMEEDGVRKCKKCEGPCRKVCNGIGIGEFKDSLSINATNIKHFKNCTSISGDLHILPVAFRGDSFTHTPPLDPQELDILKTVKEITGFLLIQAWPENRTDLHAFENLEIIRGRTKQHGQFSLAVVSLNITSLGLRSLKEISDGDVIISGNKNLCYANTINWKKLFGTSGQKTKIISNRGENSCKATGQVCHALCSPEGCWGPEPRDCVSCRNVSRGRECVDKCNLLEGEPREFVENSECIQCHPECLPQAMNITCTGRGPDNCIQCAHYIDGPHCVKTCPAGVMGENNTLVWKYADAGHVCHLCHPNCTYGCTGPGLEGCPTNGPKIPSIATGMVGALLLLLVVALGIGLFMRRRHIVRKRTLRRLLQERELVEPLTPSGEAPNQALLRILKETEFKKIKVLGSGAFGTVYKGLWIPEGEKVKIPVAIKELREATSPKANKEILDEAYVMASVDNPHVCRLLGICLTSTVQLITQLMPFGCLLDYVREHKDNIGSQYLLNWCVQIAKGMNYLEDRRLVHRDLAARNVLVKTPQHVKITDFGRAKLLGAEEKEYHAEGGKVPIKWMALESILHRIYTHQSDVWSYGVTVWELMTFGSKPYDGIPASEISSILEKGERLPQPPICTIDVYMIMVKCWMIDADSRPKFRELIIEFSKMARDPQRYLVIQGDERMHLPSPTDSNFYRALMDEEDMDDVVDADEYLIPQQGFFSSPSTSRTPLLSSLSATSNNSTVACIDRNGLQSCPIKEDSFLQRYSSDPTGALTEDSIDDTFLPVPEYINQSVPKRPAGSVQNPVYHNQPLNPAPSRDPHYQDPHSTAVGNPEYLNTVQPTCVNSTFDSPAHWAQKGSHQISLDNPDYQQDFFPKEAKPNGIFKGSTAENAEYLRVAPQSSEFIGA
Test [15] concerns the target Interferon-induced, double-stranded RNA-activated protein kinase (Homo sapiens) (UniProt P19525). Briefly: Inhibition of PKR K2 labeling site in human Huh-7 cells at 1 uM by KiNativ Profiling analysis relative to control. The format is cell-based.
For test [16], the target named is T1, Mitogen-activated protein kinase kinase kinase 2 (Homo sapiens). Briefly: Inhibition of MAP3K2 Lys2 labeling site in human A-375 cells at 0.05 uM by KiNativ Profiling analysis relative to control. It is filed as cell-based.
Test [17] concerns the target Serine/threonine-protein kinase Nek4 (Homo sapiens) (UniProt P51957). Put plainly: Inhibition of NEK4 Lys2 labeling site in human A-375 cells at 0.05 uM by KiNativ Profiling analysis relative to control. It is filed as cell-based.
Test [18] can be described thus: Inhibition of […] ATP labeling site in human Huh-7 cells at 1 uM by KiNativ Profiling analysis relative to control. As to conditions: condition cancer.
Test [19] has as its target Serine/threonine-protein kinase Nek6 (Homo sapiens) (UniProt Q9HC98). Briefly: Inhibition of NEK6 Lys2 labeling site harbouring VMHRDIKPANVFITATGVVK in human Huh-7 cells at 1 uM by KiNativ Profiling analysis relative to control. It is filed as cell-based.

Calls of active or inactive are those of the source. No cut-off for these calls is given here.

Chain of 5'-AMP-activated protein kinase catalytic subunit alpha-2 (Homo sapiens) (P54646 whole entry, looked up): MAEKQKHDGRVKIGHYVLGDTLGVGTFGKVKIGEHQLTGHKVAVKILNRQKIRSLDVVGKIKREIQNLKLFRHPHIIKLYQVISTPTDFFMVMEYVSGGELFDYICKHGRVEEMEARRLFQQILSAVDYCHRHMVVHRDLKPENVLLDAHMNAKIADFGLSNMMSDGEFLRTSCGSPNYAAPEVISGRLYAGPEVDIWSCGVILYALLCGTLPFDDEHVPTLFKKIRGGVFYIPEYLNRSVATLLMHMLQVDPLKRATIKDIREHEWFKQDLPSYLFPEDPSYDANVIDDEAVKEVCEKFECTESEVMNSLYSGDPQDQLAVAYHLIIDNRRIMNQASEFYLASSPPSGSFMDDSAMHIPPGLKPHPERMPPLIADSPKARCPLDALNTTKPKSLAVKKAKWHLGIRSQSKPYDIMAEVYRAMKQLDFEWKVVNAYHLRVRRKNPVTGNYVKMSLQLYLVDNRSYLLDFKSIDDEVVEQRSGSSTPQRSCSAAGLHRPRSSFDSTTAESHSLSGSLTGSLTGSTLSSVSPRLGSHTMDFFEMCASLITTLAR
Chain of Serine/threonine-protein kinase Nek6 (Homo sapiens) (Q9HC98 whole entry): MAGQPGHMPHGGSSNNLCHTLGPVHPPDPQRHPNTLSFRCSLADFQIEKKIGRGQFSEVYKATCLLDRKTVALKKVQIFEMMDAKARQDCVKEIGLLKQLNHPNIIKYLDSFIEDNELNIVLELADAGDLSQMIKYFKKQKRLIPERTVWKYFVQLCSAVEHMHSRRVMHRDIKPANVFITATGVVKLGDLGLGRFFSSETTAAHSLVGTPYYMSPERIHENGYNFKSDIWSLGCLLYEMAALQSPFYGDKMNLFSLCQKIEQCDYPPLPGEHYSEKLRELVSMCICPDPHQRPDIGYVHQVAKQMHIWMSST

Take `CCN1CCN(Cc2ccc(NC(=O)c3ccc(C)c(/C=C/c4cnc5[nH]ccc5c4OC)c3)cc2C(F)(F)F)CC1`: the figures for the inhibition in test [1], in test [5] and in test [6] were 1.3%, -8.2% and 14.8%, respectively. Moreover, the residual activity – broadly, what remains of the control signal, in per cent – came out at 48% in [2], 60% in test [3] and 100% in test [4].
Turning to `CCN1CCN(Cc2ccc(NC(=O)c3ccc(C)c(Oc4ccnc5[nH]ccc45)c3)cc2C(F)(F)F)CC1`, the inhibition (as a rule, the relative decrease from the control value, in per cent) in test [7] was 31.6%; in [8], 93%; in [9] it was 48.5%; in test [10], -2.3%; in test [14], 14%; in [15], 4%. The results for the inhibition in [16] and in test [17] were 7.6% and 15.2%, respectively. Moreover, the inhibition entry in [11], in test [12] and in test [13] was “inactive” in each case. Besides, the inhibition at 1 µM in test [18] is -3.2%.
Take `CNc1cc(Oc2cc(C(=O)Nc3cc(N4CCN(C)CC4)cc(C(F)(F)F)c3)ccc2C)ncn1`: the inhibition in test [19] came to 6.9%.
